SMILES strings stand for the structures.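 Five concentrations, 48 hours, 96-well plates. GI50 marks 50% less growth. Definition used: TGI = concentration required for complete inhibition of growth.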 Some results are limits rather than exact numbers.

Test systems include MDA-MB-435; K-562 leukemia; HL-60(TB) leukemia; SK-MEL-5 melanoma; MALME-3M melanoma; SK-MEL-2 melanoma; SF-539 CNS; IGROV1 ovarian.
Test in all cases: DTP human tumour cell line panel, 48 h

With `Cn1cc(C2=C(c3ccsc3)C(=O)NC2=O)c2ccccc21`, the GI50 in the assay on MDA-MB-435, in the assay on K-562 leukemia, in the assay on HL-60(TB) leukemia, with SK-MEL-5 melanoma, in the assay with MALME-3M melanoma and in the assay on SK-MEL-2 melanoma was above 25 µM each time. The GI50 (usually the concentration that inhibits growth by half) in the assay on SF-539 CNS is 24.2 µM; with IGROV1 ovarian it was above 25 µM. Further, the TGI with MDA-MB-435, with K-562 leukemia, in the assay on HL-60(TB) leukemia, in the assay on SK-MEL-5 melanoma, in the assay on MALME-3M melanoma and with SK-MEL-2 melanoma was above 25 µM in each case. Besides, the TGI in the assay with SF-539 CNS and in the assay with IGROV1 ovarian was above 25 µM each time.

As for `C=CC1(C)CCC2C(=CCC3C2(C)CC(O)C(O)C3(C)COC2OC(CO)C(O)C(O)C2O)C1` (centres undefined), the TGI in the assay on MDA-MB-435, in the assay on K-562 leukemia, in the assay on HL-60(TB) leukemia, in the assay with SK-MEL-5 melanoma, in the assay with MALME-3M melanoma and with SK-MEL-2 melanoma was above 100 µM throughout. The TGI in the assay on SF-539 CNS and in the assay with IGROV1 ovarian was above 100 µM in each case.

Turning to `COc1cc(/C=C/C(=O)c2cccc(-n3cc(-c4ccccc4)[nH]c3=O)c2)cc(OC)c1OC`, the GI50 was 1.2 µM in the assay on MDA-MB-435; 0.502 µM with K-562 leukemia; 2.9 µM with HL-60(TB) leukemia; 1.4 µM in the assay with SK-MEL-5 melanoma; 1.31 µM in the assay on MALME-3M melanoma; 2.06 µM with SK-MEL-2 melanoma. The GI50 was 1.68 µM in the assay with SF-539 CNS and 2 µM in the assay on IGROV1 ovarian. Further, the concentration for total growth inhibition (TGI) – broadly, the concentration at which net growth stops – in the assay on MDA-MB-435 is 5.35 µM; in the assay with K-562 leukemia, above 100 µM; in the assay with HL-60(TB) leukemia it was above 100 µM; with SK-MEL-5 melanoma, 2.69 µM; in the assay with MALME-3M melanoma, 3.56 µM; in the assay on SK-MEL-2 melanoma it was 4.98 µM. Besides, the TGI in the assay on SF-539 CNS is 3.12 µM; in the assay with IGROV1 ovarian, 4.7 µM.

Turning to `COc1cccc2c1nc(C(F)F)n2-c1nc(-c2ccc(NS(=O)(=O)CCN(C)C)cc2)nc(N2CCOCC2)n1`, the GI50 is 0.132 µM in the assay with MDA-MB-435; 1.2 µM in the assay on K-562 leukemia; 0.0397 µM in the assay on HL-60(TB) leukemia; 0.204 µM in the assay on SK-MEL-5 melanoma; 0.0333 µM with MALME-3M melanoma; 0.195 µM with SK-MEL-2 melanoma. Moreover, the 50% growth inhibitory concentration (GI50) in the assay with SF-539 CNS was 0.197 µM; with IGROV1 ovarian, 0.0261 µM. The TGI in the assay on MDA-MB-435 came to 7.2 µM; with K-562 leukemia, 11.4 µM; in the assay with HL-60(TB) leukemia it was 10.2 µM; in the assay with SK-MEL-5 melanoma, 1.76 µM; with MALME-3M melanoma it was 0.317 µM; in the assay on SK-MEL-2 melanoma, 2.5 µM. Also, the TGI in the assay with SF-539 CNS was determined as 2.63 µM; in the assay with IGROV1 ovarian, 0.154 µM.

With `N#CCCNc1nonc1-c1nc2ccccc2n1CC(=O)c1ccc(N)cc1`, the GI50 was below 0.01 µM in the assay on MDA-MB-435; below 0.01 µM with K-562 leukemia; below 0.0164 µM with HL-60(TB) leukemia; 0.0271 µM in the assay on SK-MEL-5 melanoma; 0.498 µM in the assay with SK-MEL-2 melanoma; 0.0252 µM in the assay with SF-539 CNS. Moreover, the GI50 with IGROV1 ovarian was 0.0356 µM. Also, the TGI in the assay with MDA-MB-435 was below 0.0166 µM; in the assay with K-562 leukemia it was above 100 µM; with SK-MEL-5 melanoma, 0.123 µM; in the assay with MALME-3M melanoma, above 100 µM; with SF-539 CNS it was 1.19 µM; with IGROV1 ovarian, above 100 µM.

For `C=CCc1cccc(C=O)c1O`, the GI50 in the assay on MDA-MB-435 is above 100 µM; in the assay on K-562 leukemia, 32 µM; with HL-60(TB) leukemia, 10.6 µM; with SK-MEL-5 melanoma it was 38.5 µM; in the assay with MALME-3M melanoma it was above 100 µM; with SK-MEL-2 melanoma, above 100 µM. Also, the GI50 is 30.1 µM in the assay with SF-539 CNS and above 100 µM with IGROV1 ovarian. Moreover, the TGI is above 100 µM in the assay with MDA-MB-435; above 100 µM with K-562 leukemia; 41 µM in the assay with HL-60(TB) leukemia; above 100 µM in the assay on SK-MEL-5 melanoma; above 100 µM in the assay on MALME-3M melanoma; above 100 µM with SK-MEL-2 melanoma. For the same molecule, the TGI with SF-539 CNS and in the assay with IGROV1 ovarian was above 100 µM each time.

In the case of `COC(=O)[C@@H](C)C[C@H](Cc1ccccc1)NC(=O)c1nc([C@@H](C[C@H](C(C)C)N(C)C(=O)[C@@H](NC(=O)[C@H]2C[C@H](O)CCN2C)C(C)C)OC(C)=O)sc1C(C)C`, the GI50 was below 0.00111 µM with MDA-MB-435; 0.00267 µM with K-562 leukemia; 0.00143 µM with HL-60(TB) leukemia; 0.00369 µM in the assay with SK-MEL-5 melanoma; 0.00537 µM in the assay with MALME-3M melanoma; 0.00318 µM with SK-MEL-2 melanoma. The GI50 with SF-539 CNS is 0.0159 µM; in the assay with IGROV1 ovarian, 0.00324 µM. Also, the TGI in the assay on MDA-MB-435 is 0.00288 µM; in the assay on K-562 leukemia, above 11.1 µM; in the assay with HL-60(TB) leukemia it was 0.0074 µM; in the assay on SK-MEL-5 melanoma, 0.185 µM; in the assay with MALME-3M melanoma, above 11.1 µM; in the assay on SK-MEL-2 melanoma it was above 11.1 µM. The concentration for total growth inhibition (TGI) in the assay on SF-539 CNS was 0.0505 µM; with IGROV1 ovarian it was above 11.1 µM.

`O=C(CCCc1ccc(N(CCCl)CCCl)cc1)NCc1ccccc1`: the GI50 in the assay with MDA-MB-435 is 3.69 µM; in the assay on K-562 leukemia, 7.43 µM; in the assay on HL-60(TB) leukemia it was 4.37 µM; with SK-MEL-5 melanoma it was 8.14 µM; in the assay on MALME-3M melanoma, 13.2 µM; with SK-MEL-2 melanoma, 21.8 µM. Further, the GI50 in the assay with SF-539 CNS is 17.8 µM; with IGROV1 ovarian, 13.8 µM. In addition, the TGI with MDA-MB-435 came to 18 µM; in the assay with K-562 leukemia, 54.3 µM; with HL-60(TB) leukemia, 23.4 µM; in the assay on SK-MEL-5 melanoma, 22.7 µM; with MALME-3M melanoma, 37.6 µM; in the assay on SK-MEL-2 melanoma, 55 µM. In addition, the TGI came out at 73.8 µM with SF-539 CNS and 43.9 µM in the assay with IGROV1 ovarian.

As for `Nc1c(C(=O)Nc2cccc(Cl)c2)sc2nc3c(cc12)C(=O)CCC3`, the GI50 in the assay with MDA-MB-435 was 0.0563 µM; in the assay on K-562 leukemia, 0.101 µM; with SK-MEL-5 melanoma, 0.141 µM; with MALME-3M melanoma, 0.498 µM; in the assay on SK-MEL-2 melanoma, 0.488 µM; in the assay with SF-539 CNS it was 0.586 µM. In addition, the GI50 in the assay with IGROV1 ovarian was 2.28 µM. In addition, the TGI was 0.284 µM in the assay on MDA-MB-435; above 100 µM in the assay with K-562 leukemia; above 100 µM in the assay with HL-60(TB) leukemia; above 100 µM in the assay with SK-MEL-5 melanoma; above 100 µM in the assay with MALME-3M melanoma; above 100 µM in the assay with SK-MEL-2 melanoma. For the same molecule, the TGI in the assay with SF-539 CNS and with IGROV1 ovarian was above 100 µM each time.

Consider `Sc1cccc2cccnc12`, for which the GI50 in the assay on MDA-MB-435 is 2.66 µM; in the assay on K-562 leukemia it was 0.385 µM; in the assay with HL-60(TB) leukemia, 1.02 µM; in the assay with SK-MEL-5 melanoma it was 0.822 µM; in the assay with MALME-3M melanoma, 1.06 µM; with SK-MEL-2 melanoma, 2.58 µM. For the same molecule, the values for the GI50 in the assay on SF-539 CNS and in the assay on IGROV1 ovarian were 0.776 µM and 0.541 µM, respectively. Also, the TGI is 20.5 µM with MDA-MB-435; above 52 µM with K-562 leukemia; 7.21 µM in the assay with HL-60(TB) leukemia; 4.25 µM with SK-MEL-5 melanoma; 14 µM with MALME-3M melanoma; 15.3 µM in the assay on SK-MEL-2 melanoma. Also, the TGI in the assay on SF-539 CNS came out at 12.9 µM; with IGROV1 ovarian it was 12.6 µM.

With `N#CC1=C(N)Oc2c(sc3c(Br)cccc23)C1c1ccc([N+](=O)[O-])cc1` (centres undefined), the GI50 is 0.0206 µM with MDA-MB-435; 0.0458 µM in the assay with K-562 leukemia; 0.0816 µM in the assay with HL-60(TB) leukemia; 0.0652 µM in the assay with SK-MEL-5 melanoma; 1.08 µM with MALME-3M melanoma; 0.294 µM with SK-MEL-2 melanoma. Moreover, the values for the GI50 in the assay on SF-539 CNS and in the assay with IGROV1 ovarian were 0.0619 µM and 0.33 µM, respectively. In addition, the TGI in the assay with MDA-MB-435 came to 0.0807 µM; with K-562 leukemia it was 13.5 µM; in the assay with HL-60(TB) leukemia it was 1.15 µM; with SK-MEL-5 melanoma it was 4.45 µM; in the assay on MALME-3M melanoma, 24.7 µM; with SK-MEL-2 melanoma, 17.5 µM. Further, the TGI with SF-539 CNS was determined as 0.475 µM; in the assay on IGROV1 ovarian it was 18.4 µM.

For `C=C(CO)C(=O)OC1CC(=C)C2CC(O)C(C)C2C2OC(=O)C(=C)C12` (centres undefined), the TGI with MDA-MB-435 came out at 45.2 µM; in the assay with K-562 leukemia, 82.2 µM; with HL-60(TB) leukemia, 62.5 µM; with SK-MEL-5 melanoma it was 50.9 µM; with MALME-3M melanoma it was 41.7 µM; in the assay on SK-MEL-2 melanoma, 32 µM. For the same molecule, the TGI in the assay on SF-539 CNS was found to be 37.8 µM; in the assay on IGROV1 ovarian it was 39.3 µM.

Consider `O=C1NN2CC(c3ccccc3)=NN=C2c2ccccc21`, for which the GI50 in the assay with MDA-MB-435 is 36.7 µM; in the assay on K-562 leukemia, 28.2 µM; in the assay on HL-60(TB) leukemia it was 19.9 µM; with SK-MEL-5 melanoma, 26.8 µM; with MALME-3M melanoma, 32.1 µM; in the assay on SK-MEL-2 melanoma it was 52.8 µM. Moreover, the figures for the GI50 in the assay with SF-539 CNS and in the assay with IGROV1 ovarian were 25.8 µM and 42.8 µM, respectively. The TGI in the assay with MDA-MB-435 was above 100 µM; in the assay with K-562 leukemia it was above 100 µM; in the assay on HL-60(TB) leukemia it was 56.8 µM; in the assay with SK-MEL-5 melanoma it was 67.2 µM; with MALME-3M melanoma it was 87.6 µM; in the assay with SK-MEL-2 melanoma, above 100 µM. The TGI was 56.8 µM in the assay with SF-539 CNS and above 100 µM in the assay with IGROV1 ovarian.

Consider `C[C@@H]1CN2[C@H]3[C@@H]1CC[C@]31CCC(=O)O[C@]1(C)[C@H]1CC[C@H]3CCC=C3[C@@H]12`, for which the GI50 with MDA-MB-435, with K-562 leukemia, in the assay with HL-60(TB) leukemia, with SK-MEL-5 melanoma, in the assay with MALME-3M melanoma and in the assay on SK-MEL-2 melanoma was above 30 µM in each case. The GI50 with SF-539 CNS and in the assay with IGROV1 ovarian was above 30 µM in each case. In addition, the TGI with MDA-MB-435, in the assay with K-562 leukemia, in the assay on HL-60(TB) leukemia, with SK-MEL-5 melanoma, in the assay with MALME-3M melanoma and with SK-MEL-2 melanoma was above 30 µM in each case. Moreover, the TGI in the assay with SF-539 CNS and in the assay with IGROV1 ovarian was above 30 µM throughout.

Values taken from PubChem BioAssay (NCI).
